In patent US20250188032A1, “NITROGEN-CONTAINING HETEROCYCLIC COMPOUNDS AND USES THEREOF” (BNH RESEARCH CO., LTD., priority 2022, published 2025):

Tests used:
[1] = tested on: BDNF and GluN2B expression in 293T cells; test: RT-PCR of BDNF and GluN2B mRNA in 293T cells; format: cell-based, human; settings: 6 hours after treating 293T cells, vs untreated group
Experimental: RT-PCR was used to measure the amount of BDNF and GluN2B in response to compounds of the present disclosure. 293T cells were dissociated using 0.05% Trypsin-EDTA solution and seeded in 24 well or 6 well dishes for RNA work. After incubation at 37° C. in a humidified atmosphere with 5% CO2 for 24 hours, the culture medium was replaced by a medium containing a series of concentrations of tested compounds diluted with the DMEM without FBS. Time course experiments were performed. The same volume of DMSO was used for negative control.
RNA was isolated from the cells after the compound treatment. After removing growth media, 0.3 to 0.4 mL of TRIzol™ per 1×10^5 to 10^7 cells were added directly to the culture dish to lyse the cells. […] RNA concentration was determined with the Thermo Scientific™ ρDrop™ plate. RNA quality was determined by measuring A230/260 and A260/280 ratio. […]
The PCR product was analyzed by agarose gel electrophoresis. […]
The BnH12 series drug according to the present disclosure was synthesized as a compound targeting HDAC4, which inhibits the expression of BDNF. […] In addition, it is known that the increase in the expression of BDNF increases the expression of GluN2B, and the mRNA level of GluN2B was also measured together with BDNF to measure the efficacy of BnH12001 in degrading HDAC4.

[2] = molecular target: HDAC1 (Homo sapiens, UniProt Q13547); test: HDAC catalytic activity, fluorogenic substrate; format: biochemical; settings: 10-dose, 3-fold serial dilution starting at 100 μM, duplicates
HDAC1, sequence (Q13547 whole entry): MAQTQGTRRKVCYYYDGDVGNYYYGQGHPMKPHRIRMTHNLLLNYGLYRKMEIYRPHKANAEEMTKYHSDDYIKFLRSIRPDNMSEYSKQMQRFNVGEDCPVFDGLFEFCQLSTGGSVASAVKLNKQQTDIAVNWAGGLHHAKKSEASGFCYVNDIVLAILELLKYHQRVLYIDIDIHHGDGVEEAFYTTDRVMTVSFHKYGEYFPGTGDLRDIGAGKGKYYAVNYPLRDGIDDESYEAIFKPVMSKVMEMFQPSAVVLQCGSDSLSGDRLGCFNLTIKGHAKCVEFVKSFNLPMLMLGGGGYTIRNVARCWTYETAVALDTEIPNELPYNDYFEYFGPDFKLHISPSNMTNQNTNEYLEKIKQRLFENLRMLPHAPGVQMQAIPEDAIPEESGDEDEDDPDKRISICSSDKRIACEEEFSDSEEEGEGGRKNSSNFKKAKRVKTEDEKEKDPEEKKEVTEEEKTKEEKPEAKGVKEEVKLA
Experimental: The compound (racemate) was resuspended in 100 mM DMSO and tested in a 10-dose IC50 with 3-fold serial dilution starting at 100 μM against HDACs 1-9, and 11. As reference compounds, Trichostatin A (TSA) and TMP269 were tested in a 10-dose IC50 with 3-fold serial dilution starting at 10 μM or 1 μM.
10 μM Fluorogenic peptide from p53 residues 379-382 (RHKK(Ac)AMC) was used for the substrate for HDAC 1, 2, 3, and 6, 50 μM Fluorogenic HDAC Class2a Substrate (Trifluoroacetyl Lysine) was used for the substrate for HDAC 4, 5, 7, 9, and 11, 100 μM Fluorogenic peptide from p53 residues 379-382 (RHK(Ac)K(Ac)AMC) was used for the substrate for HDAC8.
IC50 values were calculated using the GraphPad Prism 4 program based on a sigmoidal dose-response equation and the blank (DMSO) value concentration was entered as 1.00E-12 M for curve fitting.

[3] = tested on: GluN2B; test: Western blot of GluN2B protein in cultured fetal cortical cells; format: cell-based, mice
Experimental: The amount of GluN2B reacted with the compound of the present disclosure was measured using Western blot. The fetal cerebral cortex was extracted from mice at 17 days of gestation, dissociated into single cells, cultured for 13 days, and treated with BnH drugs for 24 hours. The drug-treated cells were subjected to protein lysate preparation using RIPA protein lysis buffer containing protease and phosphatase inhibitors. The protein concentration was determined using a BCA protein assay kit (Pierce Biotechnology) using bovine serum albumin as a standard. Equal amounts of protein (20 μg per lane) were separated by electrophoresis on SDS-polyacrylamide gels at 90 V for 2 hours, then transferred from the SDS-polyacrylamide gel to PVDF membrane at 100 V for 1 hour. Then, primary reaction with GluN2B antibody (ab65783, Abcam) was performed at 4° C. for 1 day, washed three times at 10-minutes intervals with 1×PBT, and secondary reaction was performed with anti-mouse antibody (sc-2357, Santa Cruz) for 1 hour, followed by washing three times at 10-minutes intervals with 1×PBT. Western blotting was performed as described above to confirm GluN2B protein expression. Subsequently, each blot was re-probed using anti-β-actin antibody (sc-47778, Santa Cruz). Housekeeping protein β-actin was detected as a normalization control.
The increase and decrease of BnH12 series were confirmed by setting the vehicle to 1 (N for each group was 3 or more).
Using the experimental procedure described in Example 3, it was determined whether various BnH12 series compounds increase GluN2B expression, and the results are shown in Table 6. These in vitro experimental results are expressed as relative values to the group (vehicle) that was not treated with the compound, with the effect of the group set to 1.

[4] = tested on: APP/PS1 mice hippocampus (Schaffer collateral-CA1); test: fEPSP slope and LTP in hippocampus of Alzheimer's animal model; format: in vivo; settings: 15 months old
Experimental: For intravenous injection, the tail vein injection method was used. […] In the drug injection test, the compound was administered once a day for about 11 to 13 days. 5 mice were used for the compound administration group and the control group, respectively.
For TC or hippocampus slice preparation. 9 to 10 weeks-old male C57BL/6J mice were anesthetized with isoflurane. Then, the brain was rapidly cooled via transcardial perfusion with ice-cold sucrose-artificial cerebrospinal fluid (aCSF). The brain was removed and placed in ice-cold sucrose aCSF. Paracoronal slices were prepared at an angle of 50° relative to the midline on a ramp at an angle of 10°. […]
Field recordings were made with a concentric bipolar electrode positioned in the stratum radiatum of the CA1 region using an extracellular glass pipette (3.5 MΩ) filled with aCSF. […] In all fEPSP experiments, the test stimulation were measured prior to the beginning of all the experiments (30 μA) and a test-pulse stimulation strength that evokes 50% of the maximum fEPSP was used. Baseline synaptic responses was recorded for 30 minutes, and then long-term potentiation (LTP) was induced by high-frequency stimulation (HFS; 100 Hz, 4 trains, 1 s duration, 20 s inter-train interval). […]
Excitatory postsynaptic potential (EPSP) was recorded by the whole-cell patch clamp method using a patch clamp amplifier (molecular devices, USA). […]

| Inhibitory effect on HDAC1 catalytic activity [2] | Structure (SMILES) | BDNF mRNA level [1] | GluN2B mRNA level [1] | Effect on GluN2B expression compared to the vehicle ([3]; comment on Table 6) | GluN2B expression, Western blot results, Mean ([3]; relative value, vehicle set to 1, treated for 24 hours, N 3 or more) | Slope of fEPSP in CA1 region of Schaffer collateral circuit (synaptic efficacy) [4] | Synaptic long-term potentiation (LTP) of the excitatory SC pathway [4] |
| --- | --- | --- | --- | --- | --- | --- | --- |
| did not show any inhibitory effect | CC1CCC(C(=O)O)CN1C(=O)Cc1ccc(F)cc1Cl (racemic) [BnH12001, 1-(2-(2-chloro-4-fluorophenyl)acetyl)-6-methylpiperidine-3-carboxylic acid] | significantly increased | significantly increased |  |  |  |  |
|  | C[C@@H]1CC[C@H](C(=O)O)CN1C(=O)Cc1ccc(F)cc1Cl [BnH12001 enantiomer (3S,6R, 98%<), (3S,6R)-1-(2-(2-chloro-4-fluorophenyl)acetyl)-6-methylpiperidine-3-carboxylic acid] |  |  | excellent effects | 1.548 | increased synaptic efficacy | significantly increased |
